ChEMBL document CHEMBL4308852, “GNE-371, a Potent and Selective Chemical Probe for the Second Bromodomains of Human Transcription-Initiation-Factor TFIID Subunit 1 and Transcription-Initiation-Factor TFIID Subunit 1-like” (J Med Chem, 2018)
≈ marks a conversion by molar mass, not a printed value. Calls of active or inactive are those of the source. No cut-off for these calls is given here.

Key:
[1] = biological target: T1, Bromodomain-containing protein 4 (Homo sapiens, UniProt O60885); experiment: Inhibition of recombinant His-tagged BRD4 bromodomain 1 (unknown origin) after 10 mins by TR-FRET assay
[2] = biological target: T1, Bromodomain-containing protein 4; experiment: Inhibition of recombinant His-tagged BRD4 bromodomain 2 (unknown origin) after 10 mins by TR-FRET assay
[3] = biological target: T2, Transcription initiation factor TFIID subunit 1 (Homo sapiens, UniProt P21675); experiment: Inhibition of recombinant His-tagged TAF1 bromodomain 2 (unknown origin) after 10 mins by TR-FRET assay
[4] = biological target: T2, Transcription initiation factor TFIID subunit 1; experiment: Inhibition of recombinant His-tagged TAF1 bromodomain 1 (unknown origin) after 10 mins by TR-FRET assay
[5] = biological target: T3, Chromatin remodeling regulator CECR2 (Homo sapiens, UniProt Q9BXF3); experiment: Inhibition of recombinant His-tagged CECR2 (unknown origin) after 10 mins by TR-FRET assay
CREB-binding protein = CREB-binding protein (Homo sapiens, UniProt Q92793); experiment: Inhibition of recombinant His-tagged CBP (unknown origin) after 10 mins by TR-FRET assay
[6] = biological target: T1, Bromodomain-containing protein 4; experiment: Binding affinity to recombinant human full length DNA-tagged BRD4 short isoform expressed in bacterial expression system by bromoscan assay
[7] = biological target: Transcription initiation factor TFIID subunit 1-like (Homo sapiens, UniProt Q8IZX4); experiment: Binding affinity to recombinant human full length DNA-tagged TAF1L bromodomain 2 (1523 to 1654 residues) expressed in bacterial expression system by bromoscan assay
NCI-H23 = experiment: Synergistic cytotoxicity against human H23 cells assessed as reduction in cell viability at 100 nM after 48 hrs in presence of BRD4 inhibitor JQ1 by celltiter-glo assay; format: functional, cell-based
[8] = Kinetic solubility of the compound; format: physicochemical; settings: read-out: Kinetic_solubility
[9] = biological target: T3, Chromatin remodeling regulator CECR2
[10] = biological target: T1, Bromodomain-containing protein 4; settings: 20 uM

T2 sequence (P21675 whole entry): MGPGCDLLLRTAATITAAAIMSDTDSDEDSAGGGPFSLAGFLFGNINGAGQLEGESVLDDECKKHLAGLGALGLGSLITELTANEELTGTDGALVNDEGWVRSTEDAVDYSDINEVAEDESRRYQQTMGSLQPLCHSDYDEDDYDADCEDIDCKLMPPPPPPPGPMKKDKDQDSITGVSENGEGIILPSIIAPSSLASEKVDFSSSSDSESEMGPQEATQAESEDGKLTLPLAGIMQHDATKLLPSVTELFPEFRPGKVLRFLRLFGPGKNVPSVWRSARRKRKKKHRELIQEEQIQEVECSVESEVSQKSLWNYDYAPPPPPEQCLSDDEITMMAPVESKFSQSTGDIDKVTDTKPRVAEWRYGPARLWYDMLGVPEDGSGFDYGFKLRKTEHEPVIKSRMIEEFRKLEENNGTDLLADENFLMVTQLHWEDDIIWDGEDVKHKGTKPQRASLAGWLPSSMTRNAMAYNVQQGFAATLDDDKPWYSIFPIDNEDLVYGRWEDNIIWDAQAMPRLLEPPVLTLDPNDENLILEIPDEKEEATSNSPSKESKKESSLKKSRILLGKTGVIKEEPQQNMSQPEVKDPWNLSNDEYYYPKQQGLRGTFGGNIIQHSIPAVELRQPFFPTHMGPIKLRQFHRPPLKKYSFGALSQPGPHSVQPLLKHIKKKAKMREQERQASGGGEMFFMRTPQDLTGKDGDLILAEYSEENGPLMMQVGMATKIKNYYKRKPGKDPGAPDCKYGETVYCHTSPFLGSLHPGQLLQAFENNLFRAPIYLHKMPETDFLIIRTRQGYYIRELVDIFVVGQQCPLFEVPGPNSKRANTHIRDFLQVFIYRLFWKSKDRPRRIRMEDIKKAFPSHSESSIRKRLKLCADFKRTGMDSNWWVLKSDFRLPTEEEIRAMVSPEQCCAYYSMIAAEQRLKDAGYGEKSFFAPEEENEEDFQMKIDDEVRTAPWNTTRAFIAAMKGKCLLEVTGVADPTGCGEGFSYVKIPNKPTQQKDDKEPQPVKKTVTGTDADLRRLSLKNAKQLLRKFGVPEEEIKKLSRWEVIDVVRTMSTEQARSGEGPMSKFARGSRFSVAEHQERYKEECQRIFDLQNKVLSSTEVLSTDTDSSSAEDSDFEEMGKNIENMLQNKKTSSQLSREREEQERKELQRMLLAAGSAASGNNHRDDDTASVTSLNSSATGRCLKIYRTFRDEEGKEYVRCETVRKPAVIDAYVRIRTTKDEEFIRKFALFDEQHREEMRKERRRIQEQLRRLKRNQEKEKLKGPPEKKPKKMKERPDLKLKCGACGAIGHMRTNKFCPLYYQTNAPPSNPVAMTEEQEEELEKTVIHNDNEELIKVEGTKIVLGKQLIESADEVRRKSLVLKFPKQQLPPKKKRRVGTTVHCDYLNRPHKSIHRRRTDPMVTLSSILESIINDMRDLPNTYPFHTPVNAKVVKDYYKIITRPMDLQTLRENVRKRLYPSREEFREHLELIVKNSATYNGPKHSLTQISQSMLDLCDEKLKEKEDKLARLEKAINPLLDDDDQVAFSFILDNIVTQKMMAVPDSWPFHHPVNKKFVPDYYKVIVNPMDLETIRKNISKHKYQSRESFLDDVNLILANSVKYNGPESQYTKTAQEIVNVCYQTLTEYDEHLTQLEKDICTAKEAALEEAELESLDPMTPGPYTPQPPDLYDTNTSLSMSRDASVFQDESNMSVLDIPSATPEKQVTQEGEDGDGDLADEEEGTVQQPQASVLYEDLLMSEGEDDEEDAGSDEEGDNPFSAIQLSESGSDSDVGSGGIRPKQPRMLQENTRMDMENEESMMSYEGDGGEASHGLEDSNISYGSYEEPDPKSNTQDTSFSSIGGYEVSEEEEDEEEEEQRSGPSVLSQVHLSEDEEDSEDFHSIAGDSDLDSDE
T3 sequence (Q9BXF3 whole entry): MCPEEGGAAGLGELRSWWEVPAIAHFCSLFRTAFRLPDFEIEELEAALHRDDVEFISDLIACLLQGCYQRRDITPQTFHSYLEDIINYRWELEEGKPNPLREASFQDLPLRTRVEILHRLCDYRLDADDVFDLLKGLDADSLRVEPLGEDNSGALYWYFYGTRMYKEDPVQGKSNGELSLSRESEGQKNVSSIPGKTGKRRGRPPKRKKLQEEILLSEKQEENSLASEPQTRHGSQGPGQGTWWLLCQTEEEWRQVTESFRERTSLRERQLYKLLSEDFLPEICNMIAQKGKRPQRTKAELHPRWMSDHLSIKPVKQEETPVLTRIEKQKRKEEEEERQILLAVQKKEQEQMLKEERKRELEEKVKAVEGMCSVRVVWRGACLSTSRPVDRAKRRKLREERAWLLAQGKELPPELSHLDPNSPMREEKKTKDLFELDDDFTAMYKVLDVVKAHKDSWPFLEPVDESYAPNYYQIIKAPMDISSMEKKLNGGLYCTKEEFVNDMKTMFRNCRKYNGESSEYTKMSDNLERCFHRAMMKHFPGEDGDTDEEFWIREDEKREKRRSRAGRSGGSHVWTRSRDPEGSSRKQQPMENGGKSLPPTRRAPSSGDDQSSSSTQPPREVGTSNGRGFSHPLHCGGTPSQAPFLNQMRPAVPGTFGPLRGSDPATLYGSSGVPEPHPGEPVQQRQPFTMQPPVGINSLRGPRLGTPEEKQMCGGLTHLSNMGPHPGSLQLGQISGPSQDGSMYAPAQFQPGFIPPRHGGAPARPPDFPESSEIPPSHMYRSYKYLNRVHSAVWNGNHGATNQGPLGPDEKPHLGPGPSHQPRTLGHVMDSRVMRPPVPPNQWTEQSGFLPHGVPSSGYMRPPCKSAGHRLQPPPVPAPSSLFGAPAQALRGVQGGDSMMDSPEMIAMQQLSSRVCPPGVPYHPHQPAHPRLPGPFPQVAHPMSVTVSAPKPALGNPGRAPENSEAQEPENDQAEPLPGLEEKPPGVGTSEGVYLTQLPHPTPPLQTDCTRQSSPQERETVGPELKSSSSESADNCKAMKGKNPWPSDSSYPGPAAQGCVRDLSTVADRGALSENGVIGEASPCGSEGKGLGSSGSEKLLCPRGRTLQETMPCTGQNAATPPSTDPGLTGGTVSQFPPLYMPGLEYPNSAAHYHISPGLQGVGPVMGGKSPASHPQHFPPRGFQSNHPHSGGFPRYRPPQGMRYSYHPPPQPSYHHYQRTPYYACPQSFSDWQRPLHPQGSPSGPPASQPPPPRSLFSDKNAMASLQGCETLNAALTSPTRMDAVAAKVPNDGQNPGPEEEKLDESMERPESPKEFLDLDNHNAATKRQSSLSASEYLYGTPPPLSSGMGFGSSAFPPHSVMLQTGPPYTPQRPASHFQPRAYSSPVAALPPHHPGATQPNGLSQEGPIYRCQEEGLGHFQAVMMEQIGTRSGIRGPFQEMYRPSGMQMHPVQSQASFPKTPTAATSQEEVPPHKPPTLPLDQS

| Compound | IC50 [1] [µM] | IC50 [2] [µM] | IC50 [3] [µM] | IC50 [4] [µM] | IC50 [5] [µM] | further results |
| --- | --- | --- | --- | --- | --- | --- |
| C=CCCn1cc(-c2cnc(OC)c(C(=O)N3CCOCC3)c2)c2cc[nH]c2c1=O | 8.6 | 9.6 | 0.007 | 6.9 | 1 | – |
| C=CCCn1cc(-c2cc(C#N)cc(C(=O)N3CCOCC3)c2)c2cc[nH]c2c1=O | 1.8 | 5 | – | – | – | – |
| C=CCCn1cc(-c2cccc(C(=O)N3CCN(CCO)CC3)c2)c2cc[nH]c2c1=O | 3.2 | 5 | 0.083 | 14 | 1.1 | IC50 (CREB-binding protein): > 20 µM |
| C=CCCn1cc(-c2cccc(C(=O)N(C)C3CCCCC3)c2)c2cc[nH]c2c1=O | 0.75 | 2.4 | 0.067 | 13 | 4 | IC50 (CREB-binding protein): > 20 µM |
| C=CCCn1cc(-c2cnc(OCC)c(C(=O)N3CCOCC3)c2)c2cc[nH]c2c1=O | 6.3 | 7.6 | 0.004 | 5.3 | 0.59 | – |
| C=CCCn1cc(-c2cc(C(=O)N3CCOCC3)cc3c2ncn3C)c2cc[nH]c2c1=O | > 20 | > 20 | – | – | 1.2 | Kd [6]: 8.9 µM; Kd [7]: 0.005 µM; Activity (NCI-H23): Active; solubility kinetic [8]: 121 µM (≈ 52.2 µg/mL); Kd [9]: 1.2 µM; inhibition [10]: inactive |

More lines, main results first:

| IC50 [1] [µM] | IC50 [2] [µM] | Compound | IC50 [3] [µM] | IC50 [4] [µM] | IC50 [5] [µM] | further results |
| --- | --- | --- | --- | --- | --- | --- |
| 0.6 | 9 | C=CCCn1cc(-c2cc(OC(F)F)cc(C(=O)N3CCOCC3)c2)c2cc[nH]c2c1=O | – | – | – | – |
| 2.3 | 4.4 | C=CCCn1cc(-c2cc(C(=O)N3CCOCC3)c3nc[nH]c3c2)c2cc[nH]c2c1=O | – | – | – | – |
| 3.6 | 4.4 | C=CCCn1cc(-c2cc(C(=O)N3CCOCC3)c3c(c2)ncn3C)c2cc[nH]c2c1=O | – | – | 0.23 | – |
| 2 | 1 | C=CCCn1cc(-c2cc(C(=O)N3CCOCC3)c3c(c2)ncn3CC)c2cc[nH]c2c1=O | 0.016 | > 20 | 2.6 | – |
| 7.9 | 17 | C=CCCn1cc(-c2cc(F)c(F)c(C(=O)N3CCOCC3)c2)c2cc[nH]c2c1=O | – | – | – | – |
| 3.4 | 6.8 | C=CCCn1cc(-c2cc(C(=O)N3CCOCC3)c3ncn(CC)c3c2)c2cc[nH]c2c1=O | – | – | – | – |
| > 20 | > 20 | C=CCCn1cc(-c2cc(C(=O)N3CCOCC3)cc3[nH]cnc23)c2cc[nH]c2c1=O | – | – | – | – |
| 8.2 | 12 | C=CCCn1cc(-c2cc(C(=O)N3CCOCC3)c3ncn(C)c3c2)c2cc[nH]c2c1=O | – | – | 0.36 | – |
